Reference: the NIST ThermoML archive (doi:10.1016/j.tca.2012.11.015)
Numbers after ± are expanded uncertainties.

Assay: molar heat capacity at constant pressure
Details: 101.33 kPa, Crystal, Small sample (50 mg) DSC

[F-].[F-].[F-].[F-].[Li+].[Lu+3] [lithium lutetium fluoride]
Details	molar heat capacity at constant pressure [J/K/mol]
319.1 K	130.85 ± 2.6
320.6 K	131.02 ± 2.6
322.3 K	131.32 ± 2.6
324.2 K	132.25 ± 2.6
326.3 K	132.67 ± 2.6
328.5 K	133 ± 2.7
330.9 K	133.72 ± 2.7
333.4 K	133.98 ± 2.7
336 K	134.52 ± 2.7
338.8 K	134.79 ± 2.7
341.6 K	135.17 ± 2.7
344.6 K	135.52 ± 2.7
347.6 K	135.82 ± 2.7
350.6 K	136.23 ± 2.7
353.7 K	136.42 ± 2.7
356.9 K	136.86 ± 2.7
360.1 K	137.1 ± 2.7
363.4 K	137.35 ± 2.8
366.6 K	137.71 ± 2.8
369.9 K	138.05 ± 2.8
373.2 K	138.18 ± 2.8
376.4 K	138.33 ± 2.8
379.7 K	138.6 ± 2.8
382.9 K	138.79 ± 2.8
386.1 K	139.07 ± 2.8
389.3 K	139.36 ± 2.8
392.5 K	139.51 ± 2.8
395.7 K	139.75 ± 2.8
398.8 K	140.02 ± 2.8
401.9 K	140.28 ± 2.8
405 K	140.35 ± 2.8
408.1 K	140.55 ± 2.8
411.1 K	140.85 ± 2.8
414.1 K	141 ± 2.8
417.1 K	141.21 ± 2.8
420.1 K	141.55 ± 2.8
423.1 K	141.68 ± 2.8
426 K	141.88 ± 2.8
428.9 K	142.09 ± 2.8
431.8 K	142.34 ± 2.9
434.6 K	142.51 ± 2.9
437.4 K	142.74 ± 2.9
440.3 K	142.93 ± 2.9
443.1 K	143.15 ± 2.9
445.8 K	143.38 ± 2.9
448.6 K	143.52 ± 2.9
451.3 K	143.71 ± 2.9
454.1 K	144.09 ± 2.9
456.8 K	144.11 ± 2.9
459.5 K	144.4 ± 2.9
462.2 K	144.65 ± 2.9
464.9 K	144.87 ± 2.9
467.6 K	145.03 ± 2.9
470.3 K	145.2 ± 2.9
473 K	145.33 ± 2.9
475.6 K	145.69 ± 2.9
478.3 K	146.04 ± 2.9
480.9 K	146.21 ± 2.9
483.5 K	146.26 ± 2.9
486.2 K	146.62 ± 2.9
488.8 K	146.64 ± 2.9
491.4 K	146.9 ± 2.9
494 K	147.09 ± 2.9
496.6 K	147.19 ± 2.9
499.2 K	147.37 ± 3
501.8 K	147.62 ± 3
504.4 K	147.87 ± 3
506.9 K	148.03 ± 3
509.5 K	148.01 ± 3
512.1 K	148.31 ± 3
514.7 K	148.51 ± 3
517.2 K	148.78 ± 3
519.8 K	148.72 ± 3
522.4 K	148.99 ± 3
524.9 K	149.11 ± 3
527.5 K	149.23 ± 3
530 K	149.4 ± 3
532.6 K	149.69 ± 3
535.1 K	149.98 ± 3
537.6 K	150.02 ± 3
540.2 K	150.02 ± 3
542.7 K	150.2 ± 3
545.2 K	150.41 ± 3
547.8 K	150.44 ± 3
550.3 K	150.65 ± 3
552.8 K	150.77 ± 3
555.4 K	150.97 ± 3
557.9 K	151.21 ± 3
560.4 K	151.31 ± 3
562.9 K	151.22 ± 3
565.4 K	151.35 ± 3
567.9 K	151.77 ± 3
570.4 K	152.1 ± 3
572.9 K	151.97 ± 3
575.4 K	152.01 ± 3
577.9 K	152.43 ± 3
580.4 K	152.52 ± 3
582.9 K	152.55 ± 3
585.4 K	152.99 ± 3.1
587.9 K	153.06 ± 3.1
590.4 K	153.4 ± 3.1
592.8 K	153.37 ± 3.1
595.3 K	153.54 ± 3.1
597.8 K	153.59 ± 3.1
600.3 K	153.68 ± 3.1
602.8 K	153.91 ± 3.1
605.3 K	153.92 ± 3.1
607.7 K	153.98 ± 3.1
610.2 K	154.22 ± 3.1
612.7 K	154.27 ± 3.1
615.2 K	154.37 ± 3.1
617.6 K	154.5 ± 3.1
620.1 K	154.88 ± 3.1
622.6 K	154.95 ± 3.1
625.1 K	154.9 ± 3.1
627.5 K	155.19 ± 3.1
630 K	155.25 ± 3.1
632.5 K	155.38 ± 3.1
634.9 K	155.28 ± 3.1
637.4 K	155.32 ± 3.1
639.9 K	155.57 ± 3.1
642.3 K	155.79 ± 3.1
644.8 K	156.13 ± 3.1
